Data published in patent US11939340B2, “CDK inhibitors and their use as pharmaceuticals” (Prelude Therapeutics Incorporated, priority 2022, dated 2024).

Columns and labels:
pRB in OVCAR3 cells = assay: pRB ICW Assay in OVCAR3 Cells; type: cell-based; settings: Homo sapiens, OVCAR-3, incubated with compound for 2 hours, read-out: OVCAR3 p-RB ICW IC50
Method in brief: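 OVCAR3 cells seeded overnight, then exposed for 2 h at 37 °C to a 9-point half-log compound dilution series in duplicate; 10 μM reference compound defined maximum inhibition. Fixed, permeabilised cells stained in-cell western style with anti-phospho-RB antibody plus DRAQ5 nuclear stain; fluorescence read at 700 and 800 nm.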

CDK2/Cyclin E2 = CDK2/Cyclin E2 (Homo sapiens, UniProt P24941); assay: CDK2/CyclinE2 Enzymatic Activity Assay (TR-FRET); type: biochemical; settings: CDK2/CyclinE2 1 nM, ATP 1 mM, read-out: CDK2_El IC50
Method in brief: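 TR-FRET kinase assay with insect-cell CDK2/Cyclin E2 (1 nM) phosphorylating ULight-4E-BP1 (50 nM) at 1 mM ATP in HEPES pH 7.4 buffer; 9-dose 3-fold series preincubated 20 min, reaction started with 10 mM MgCl2, 45 min at 37 °C. EDTA quench, Eu-anti-P-4E-BP1 detection; IC50 from 4-parameter fit.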

CDK4/Cyclin D1 = biological target: T1, CDK4/Cyclin D1 (Homo sapiens, UniProt P11802); assay: CDK4/CyclinD1 Enzymatic Activity Assay (TR-FRET); type: biochemical; settings: CDK4/CyclinD1 1 nM, ATP 2 mM, read-out: CDK4_D1 IC50
T1 construct: purchased ProQinase; host or cells: insect cell
Method in brief: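 Insect-cell-expressed CDK4/Cyclin D1 (1 nM) phosphorylated ULight-4E-BP1 (100 nM) with 2 mM ATP in HEPES pH 7.4 buffer with TCEP, after 20 min compound preincubation; 10 mM MgCl2 started the reaction, run 45 min at 37 °C. EDTA/Eu-anti-phospho-4E-BP1 TR-FRET readout; 9-point IC50 by four-parameter fit.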

Measured: IC50

T1 sequence (P11802 whole entry): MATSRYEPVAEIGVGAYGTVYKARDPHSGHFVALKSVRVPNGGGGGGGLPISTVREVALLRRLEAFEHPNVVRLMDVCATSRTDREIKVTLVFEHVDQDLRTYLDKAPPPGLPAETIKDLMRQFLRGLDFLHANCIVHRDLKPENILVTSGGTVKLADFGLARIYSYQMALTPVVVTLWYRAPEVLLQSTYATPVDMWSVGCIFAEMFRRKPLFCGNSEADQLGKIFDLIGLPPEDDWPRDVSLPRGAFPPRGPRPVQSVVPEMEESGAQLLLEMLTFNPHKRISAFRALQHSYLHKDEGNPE
T1 sequence (P24385 whole entry partner): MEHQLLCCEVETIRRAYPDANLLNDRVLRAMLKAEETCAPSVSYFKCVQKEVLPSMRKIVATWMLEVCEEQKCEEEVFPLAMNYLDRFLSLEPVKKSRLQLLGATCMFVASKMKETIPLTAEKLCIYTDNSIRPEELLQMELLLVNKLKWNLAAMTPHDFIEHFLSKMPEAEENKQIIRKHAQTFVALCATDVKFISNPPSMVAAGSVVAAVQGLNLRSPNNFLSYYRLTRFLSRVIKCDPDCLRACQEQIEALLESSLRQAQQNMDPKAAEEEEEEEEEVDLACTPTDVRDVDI

CCC12CC(NC)CN1C(=O)c1cc(-c3nc(NC4CCN(S(=O)(=O)c5cnn(C)c5)CC4)ncc3C(F)(F)F)sc12 (stereo not drawn) [Example 49, 8a-Ethyl-2-(2-((1-((1-methyl-1H-pyrazol-4-yl)sulfonyl)piperidin-4-yl)amino)-5-(trifluoromethyl)pyrimidin-4-yl)-7-(methylamino)-6,7,8,8a-tetrahydro-4H-thieno[2,3-a]pyrrolizin-4-one]
≤ 100 nM: all assays above

CCC12CC(N(C)C)CN1C(=O)c1cc(-c3nc(NC4CCN(S(=O)(=O)c5cnn(C)c5)CC4)ncc3C(F)(F)F)sc12 (stereo not drawn) [Example 50, 7-(Dimethylamino)-8a-ethyl-2-(2-((1-((1-methyl-1H-pyrazol-4-yl)sulfonyl)piperidin-4-yl)amino)-5-(trifluoromethyl)pyrimidin-4-yl)-6,7,8,8a-tetrahydro-4H-thieno[2,3-a]pyrrolizin-4-one]
≤ 100 nM: all assays above
